This passage reports IC50 results from patent publication US9212130B2, “Heterocyclic derivative and pharmaceutical composition comprising the same” (SHIONOGI & CO., LTD., priority 2010, dated 2015).

Chain of human P2X3 receptor (P56373 whole entry): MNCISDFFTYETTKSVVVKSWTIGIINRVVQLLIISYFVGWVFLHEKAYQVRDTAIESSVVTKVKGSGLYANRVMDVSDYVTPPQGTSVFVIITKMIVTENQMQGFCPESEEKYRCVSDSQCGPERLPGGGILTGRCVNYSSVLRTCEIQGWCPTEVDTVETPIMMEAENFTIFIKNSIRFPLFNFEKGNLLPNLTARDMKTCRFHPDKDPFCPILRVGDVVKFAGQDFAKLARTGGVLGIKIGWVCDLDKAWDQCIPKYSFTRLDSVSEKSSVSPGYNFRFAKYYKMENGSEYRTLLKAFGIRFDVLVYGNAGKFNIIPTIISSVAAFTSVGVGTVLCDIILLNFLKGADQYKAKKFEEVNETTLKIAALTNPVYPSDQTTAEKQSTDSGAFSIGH

The target of the test is human P2X3 receptor (Homo sapiens (Human), UniProt P56373). Briefly: Evaluation of human P2X3 receptor inhibitory activity (ATP-induced Fluo-3 fluorescence, FDSS 3000). It is filed as cell-based. The following applies: C6BU-1 cell transfected with human P2X3 receptor gene. As for the experimental part:
The plate was placed in High-Throughput Screening System FDSS 3000 (Hamamatsu Photonics K.K.). […] Five minutes after, 50 nM ATP solution (50 μL) prepared by dilution with the dilution buffer was dispensed through the built-in automatic dispenser, and the measurement of fluorescence intensity was continued for 3 min. For each well, the specific maximum fluorescence intensity was calculated as the ratio of the maximum fluorescence intensity after addition of the ATP solution to the fluorescence intensity at the starting of the measurement. […] FDSS software (Hamamatsu Photonics K.K.) was used for calculation of the specific maximum fluorescence intensity. IC50 was calculated using Microsoft Excel (Microsoft. Corporation) and XLfit (idbs Ltd.)
The aforementioned in mM, μM and nM are each means mmol/L, μmol/L and nmol/L, respectively.
In tables, μM means μmol/L.
What is called IC50 is the concentration that gives 50% inhibition. In turn, `CC(C)Oc1ccc(Nc2[nH]c(=O)n(C)c(=O)c2Cc2ccc(Cl)cc2)cc1F` [I-001] registered an IC50 of 901 nM.

The molecule `CC(C)Oc1ccc(Nc2cc(=O)n(Cc3ccc(Cl)cc3)c(=O)n2Cc2ccc(Cl)cc2)cc1Cl` [I-005] showed an IC50 of 238 nM.

`COC(=O)C(C)(C)Cn1c(=O)cc(Nc2ccc(OC(C)C)c(Cl)c2)n(Cc2ccc(Cl)cc2)c1=O` [I-010] had an IC50 of 10 nM.

Molecule `CC(C)Oc1ccc(Nc2cc(=O)n(CC(C)(C)C(=O)O)c(=O)n2Cc2ccc(Cl)cc2)cc1Cl` [I-012] yielded an IC50 of 6 nM.

In turn, `Cc1ccc(Cc2c(Nc3ccc(OC(C)C)cc3)[nH]c(=O)n(Cc3ccccc3)c2=O)cc1` [I-014] displayed an IC50 of 404 nM.

In turn, `COC(=O)C(C)(C)Cn1c(=O)cc(Nc2ccc(OC(C)C)c(F)c2)n(Cc2ccc(Cl)cc2)c1=O` [I-020] registered an IC50 of 28 nM.

The molecule `CC(C)Oc1ccc(Nc2ncc(Cc3ccccc3)c(=O)n2Cc2ccc(Cl)cc2)cc1Cl` [I-022] had an IC50 of 147 nM. This IC50 is about 5.2-fold higher than that of the molecule before.

Consider `CC(C)Oc1ccc(Nc2nc(=O)c(Cc3ccccc3)cn2Cc2ccc(Cl)cc2)cc1Cl` [I-023, 5-benzyl-1-(4-chlorobenzyl)-2-(3-chloro-4-isopropoxyphenylamino)pyrimidine-4(1H)-one], for which half-maximal inhibition (IC50) was put at 148 nM.

In the case of `CCOC(=O)c1cn(Cc2ccccc2)c(=O)cc1Nc1ccc(OC(C)C)c(Cl)c1` [I-046, 4-(3-chloro-4-isopropoxyphenylamino)-1-benzyl-5-(ethoxycarbonyl)pyridine-2(1H)-one], the concentration for half-maximal inhibition (IC50) was determined as 395 nM.

On to `CCOC(=O)c1cn(Cc2ccccc2)c(Nc2ccc(OC(C)C)c(Cl)c2)cc1=O` [I-049], for which the midpoint of inhibition, the IC50, lay at 796 nM.

As to `CCOC(=O)c1cn(Cc2ccccc2)c(=O)cc1Nc1ccc(OC(C)C)c(Nc2ccc(OC(C)C)c(Cl)c2)c1` [I-061], it took 748 nM to reach half-maximal inhibition (IC50).

`CC(C)Oc1ccc(Nc2ccc(Cc3nc(N(C)C)oc(=O)c3Cl)cc2)cc1F` [I-063] had a concentration for half-maximal inhibition (IC50) of 688 nM. The IC50 values of the last two molecules are within 1.5-fold of each other.

Regarding `CC(C)Oc1ccc(Nc2cc(=O)n(Cc3ccccc3)cc2C(=O)c2ccc(Cl)cc2)cc1Cl` [I-065, 4-(3-chloro-4-isopropoxyphenylamino)-1-benzyl-5-(4-chlorobenzoyl)pyridine-2(1H)-one], the IC50 was determined as 128 nM.

In turn, `CC(C)Oc1ccc(Nc2cc(=O)n(Cc3ccccc3)cc2Cc2ccc(Cl)cc2)cc1Cl` [I-067, 4-(3-chloro-4-isopropoxyphenylamino)-1-benzyl-5-(4-chlorobenzyl)pyridine-2(1H)-one] displayed an IC50 of 310 nM.

The molecule `CC(C)Oc1ccc(Nc2cc(=O)n(Cc3ccccc3)cc2C(O)c2ccc(Cl)cc2)cc1Cl` (stereo not drawn) [I-068, 4-(3-chloro-4-isopropoxyphenylamino)-1-benzyl-5-(4-chloro-α-hydroxybenzyl)pyridine-2(1H)-one] registered an IC50 of 105 nM.

In turn, `CC(C)Oc1ccc(Nc2oc(Cc3ccccc3)nc2Cc2ccc(Cl)cc2)cc1F` [I-070, 4-(4-chlorobenzyl)-2-benzyl-5-(3-fluoro-4-isopropoxyphenylamino)oxazole] had an IC50 of 635 nM. Against the preceding molecule, the IC50 is about 6-fold higher.

`CCNc1ccc(Nc2ccc(OC(C)C)cc2)c(Cc2ccc(Cl)cc2)c1` [I-071, 1-(4-chlorobenzyl)-3-ethylamino-6-(4-isopropoxyphenylamino)benzene] had an IC50 of 502 nM. This IC50 and that of the molecule before are within 1.5-fold of each other.

Regarding `CCc1cnc(Nc2ccc(OC(C)C)c(F)c2)c(Oc2ccc(C)cc2)n1` [I-072, 5-ethyl-2-(3-fluoro-4-isopropoxyphenylamino)-3-(4-methylphenoxy)pyrazine], half-maximal inhibition (IC50) required 749 nM.

As for `CC(C)Oc1ccc(Nc2cc(=O)n(CC3COC(C)(C)OC3)c(=O)n2Cc2ccc(Cl)cc2)cc1Cl` [I-094], the half-maximal inhibitory concentration (IC50) was 5 nM.

In the case of `COC(=O)[C@@H](C)Cn1c(=O)cc(Nc2ccc(OC(C)C)c(Cl)c2)n(Cc2ccc(Cl)cc2)c1=O` [I-095], inhibition was half-maximal at 16 nM (IC50).

`CC(C)Oc1ccc(Nc2nc(=O)c(/C=C/C(=O)O)cn2Cc2ccc(Cl)cc2)cc1Cl` [I-097]: half-maximal inhibition (IC50) required 307 nM.

The molecule `CCOC(=O)/C=C/c1cn(Cc2ccc(Cl)cc2)c(Nc2ccc(OC(C)C)c(Cl)c2)nc1=O` [I-098] gave an IC50 of 233 nM.

Turning to `CC(C)Oc1ccc(Nc2cc(=O)n(CC(CO)CO)c(=O)n2Cc2ccc(Cl)cc2)cc1Cl` [I-099], the IC50 stood at 6 nM.

Regarding `COC(=O)CCCn1c(=O)cc(Nc2ccc(OC(C)C)c(Cl)c2)n(Cc2ccc(Cl)cc2)c1=O` [I-103], it took 14 nM to reach half-maximal inhibition (IC50).

In turn, `COC(=O)Cn1c(=O)cc(Nc2ccc(OC(C)C)c(F)c2)n(Cc2ccc(Cl)cc2)c1=O` [I-104, 1-(4-chlorobenzyl)-6-(3-fluoro-4-isopropoxyphenylamino)-3-(methoxycarbonylmethyl)pyrimidine-2,4(1H,3H)-dion] gave an IC50 of 96 nM. Against the preceding molecule, the IC50 is about 6.9-fold higher.

Take `CC(C)Oc1ccc(Nc2cc(=O)n(CC(=O)O)c(=O)n2Cc2ccc(Cl)cc2)cc1F` [I-105, 1-(4-chlorobenzyl)-6-(3-fluoro-4-isopropoxyphenylamino)-3-(hydroxycarbonylmethyl)pyrimidine-2,4(1H,3H)-dion]: the IC50 turned out to be 412 nM.

In the case of `COC(=O)C(C)(C)Cn1c(=O)cc(Nc2cccc(C(F)(F)F)c2)n(Cc2ccc(Cl)cc2)c1=O` [I-107], the IC50 came to 51 nM. This IC50 lies about 8.1-fold lower than the previous one.

Molecule `COC(=O)C(C)(C)Cn1c(=O)cc(Nc2cccc(C(F)(F)F)n2)n(Cc2ccc(Cl)cc2)c1=O` [I-108, 1-(4-chlorobenzyl)-3-(2-methoxycarbonyl-2-methylpropyl)-6-(6-trifluoromethyl-2-pyridylamino)pyrimidine-2,4(1H,3H)-dion] came in with an IC50 of 61 nM.

With `CC(C)Oc1ccc(Nc2nc(OCCO)c3ccccc3c2C(=O)c2ccc(Cl)cc2)cc1F` [I-110, 4-(4-chlorobenzoyl)-3-(3-fluoro-4-isopropoxyphenylamino)-1-(2-hydroxyethoxy)isoquinoline], the IC50 amounted to 405 nM.

Regarding `CC(C)Oc1ccc(NC2=CC(O)N(CC(=O)NC(CO)CO)C(=O)N2Cc2ccc(Cl)cc2)cc1F` (centres unmarked) [I-111], half-maximal inhibition (IC50) required 11 nM.

`CC(C)(CN1C(=O)N(Cc2ccc(Cl)cc2)C(Nc2cccc(C(F)(F)F)c2)=CC1O)C(=O)O` (centres unmarked) [I-113] had an IC50 of 72 nM.

`CC(C)(Cn1c(=O)cc(Nc2cccc(C(F)(F)F)n2)n(Cc2ccc(Cl)cc2)c1=O)C(=O)O` [I-114, 1-(4-chlorobenzyl)-3-(2-hydroxycarbonyl-2-methylpropyl)-6-(6-trifluoromethyl-2-pyridylamino)pyrimidine-2,4(1H,3H)-dion] came in with an IC50 of 160 nM.

`CCOC(=O)CCC1=CN(Cc2ccc(Cl)cc2)C(Nc2ccc(OC(C)C)c(Cl)c2)=NC1O` (centres unmarked) [I-115]: the IC50 worked out at 51 nM.

As for `CCOC(=O)CCC1CN(Cc2ccc(Cl)cc2)C(Nc2ccc(OC(C)C)c(Cl)c2)=NC1=O` (centres unmarked) [I-116], the IC50 stood at 315 nM.

Consider `CCOC(=O)c1cn(Cc2ccc(Cl)cc2)c(Nc2ccc(OC(C)C)c(Cl)c2)nc1=O` [I-125], for which the IC50 is 243 nM.

For the molecule `CCOC(=O)c1cnc(Nc2ccc(OC(C)C)c(Cl)c2)n(Cc2ccc(Cl)cc2)c1=O` [I-126], the IC50 worked out at 50 nM. Against the preceding molecule, the IC50 is about 4.9-fold lower.

`CC(C)Oc1ccc(Nc2ncc(C(=O)O)c(=O)n2Cc2ccc(Cl)cc2)cc1Cl` [I-129] came in with an IC50 of 490 nM.

`CCOC(=O)/C=C/c1cnc(Nc2ccc(OC(C)C)c(Cl)c2)n(Cc2ccc(Cl)cc2)c1=O` [I-132, 2-(3-chloro-4-isopropoxyphenylamino)-3-(4-chlorobenzyl)-5-(2-ethoxycarbonylethenyl) pyrimidine-4(3H)-one] displayed an IC50 of 206 nM.
